Results as given in the supplement of paper PMC10627819.

Assays:
B. subtilis 168 [1] = test: fitness (endpoint OD595 vs no drug) (fraction); higher = more growth
Outline: (§1)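 Growth medium was TSB, LB Lennox or CY, and plates were kept at 37 °C. Inoculation was at OD595 0.01 in 384-well plates, at 30 µl per well or 55 µl for S. pneumoniae. OD595 was monitored every 30 min for 14 h and background-subtracted using the first reading. Fitness is the optical density on entering stationary phase divided by the robust mean of no-drug controls, with values capped at 1.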

S. pneumoniae D39V [2] = test: as above
Outline: as §1

B. subtilis 168 [3] = test: Bliss interaction score (quartile over a dose matrix) (fitness difference); higher = more antagonism (negative = synergy)
Outline: (§2)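 Fitness was OD595 at entry into stationary phase divided by the plate's robust no-drug mean and capped at 1; single-drug fitness was inferred from combination data. The Bliss score is observed minus expected (product) fitness, summarised by quartiles over technical, biological and donor/recipient replicates.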

S. aureus DSM 20231 = test: as above
Outline: as §2

S. aureus Newman = test: as above
Outline: as §2

S. pneumoniae D39V [4] = test: as above
Outline: as §2
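For Bliss interaction score (quartile over a dose matrix) in this document: first quartile when negative (synergy) and third quartile when positive (antagonism).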

C[C@H]1c2cccc(O)c2C(=O)C2=C(O)[C@]3(O)C(=O)C(C(N)=O)=C(O)[C@@H](N(C)C)[C@@H]3[C@@H](O)[C@@H]21 [Doxycycline] + CN(C)C(=O)C(CCN1CCC(O)(c2ccc(Cl)cc2)CC1)(c1ccccc1)c1ccccc1 [Loperamide]
Conditions	fitness
B. subtilis 168 [1], first compound 0.02 µg/mL, partner 25 µg/mL	0.544
B. subtilis 168 [1], first compound 0.02 µg/mL, partner 50 µg/mL	0.0585
B. subtilis 168 [1], first compound 0.02 µg/mL, partner 100 µg/mL	0.0358
B. subtilis 168 [1], first compound 0.04 µg/mL, partner 25 µg/mL	0.0527
B. subtilis 168 [1], first compound 0.04 µg/mL, partner 50 µg/mL	0.0434
B. subtilis 168 [1], first compound 0.04 µg/mL, partner 100 µg/mL	0.0354
B. subtilis 168 [1], first compound 0.08 µg/mL, partner 25 µg/mL	0.0276
B. subtilis 168 [1], first compound 0.08 µg/mL, partner 50 µg/mL	0.0338
B. subtilis 168 [1], first compound 0.08 µg/mL, partner 100 µg/mL	0.0354
S. pneumoniae D39V [2], first compound 0.0155 µg/mL, partner 17.14 µg/mL	0.874
S. pneumoniae D39V [2], first compound 0.0155 µg/mL, partner 20 µg/mL	≥ 1
S. pneumoniae D39V [2], first compound 0.0155 µg/mL, partner 34.28 µg/mL	0.861
S. pneumoniae D39V [2], first compound 0.0155 µg/mL, partner 40 µg/mL	≥ 1
S. pneumoniae D39V [2], first compound 0.0155 µg/mL, partner 80 µg/mL	≥ 1
S. pneumoniae D39V [2], first compound 0.031 µg/mL, partner 17.14 µg/mL	0.939
S. pneumoniae D39V [2], first compound 0.031 µg/mL, partner 34.28 µg/mL	0.932
S. pneumoniae D39V [2], first compound 0.062 µg/mL, partner 17.14 µg/mL	0.864
S. pneumoniae D39V [2], first compound 0.062 µg/mL, partner 34.28 µg/mL	0.895

fitness, S. pneumoniae D39V [2], one replicate
Conditions	first compound 0.003875 µg/mL	first compound 0.00775 µg/mL	first compound 0.0155 µg/mL	first compound 0.031 µg/mL	first compound 0.062 µg/mL
partner 20 µg/mL	≥ 1	≥ 1	–	0.976	0.836
partner 40 µg/mL	≥ 1	≥ 1	–	0.942	0.826
partner 68.57 µg/mL	–	–	0.858	0.875	0.966
partner 80 µg/mL	≥ 1	≥ 1	–	0.973	0.764

Conditions	Bliss interaction score
B. subtilis 168 [3]	-0.189
S. aureus DSM 20231	0.107
S. aureus Newman	0.0172
S. pneumoniae D39V [4]	0.193

C[C@H]1c2cccc(O)c2C(=O)C2=C(O)[C@]3(O)C(=O)C(C(N)=O)=C(O)[C@@H](N(C)C)[C@@H]3[C@@H](O)[C@@H]21 [Doxycycline] + CN(C)c1cc(NC(=O)CNC(C)(C)C)c(O)c2c1C[C@H]1C[C@H]3[C@H](N(C)C)C(O)=C(C(N)=O)C(=O)[C@@]3(O)C(O)=C1C2=O [Tigecycline]
Conditions	fitness
B. subtilis 168 [1], first compound 0.02 µg/mL, partner 0.039 µg/mL	0.94
B. subtilis 168 [1], first compound 0.02 µg/mL, partner 0.078 µg/mL	0.818
B. subtilis 168 [1], first compound 0.02 µg/mL, partner 0.156 µg/mL	0.85
B. subtilis 168 [1], first compound 0.04 µg/mL, partner 0.039 µg/mL	0.824
B. subtilis 168 [1], first compound 0.04 µg/mL, partner 0.078 µg/mL	0.773
B. subtilis 168 [1], first compound 0.04 µg/mL, partner 0.156 µg/mL	0.792
B. subtilis 168 [1], first compound 0.08 µg/mL, partner 0.078 µg/mL	0.619
B. subtilis 168 [1], first compound 0.08 µg/mL, partner 0.156 µg/mL	0.635
S. pneumoniae D39V [2], first compound 0.0155 µg/mL, partner 0.65 µg/mL	0.969
S. pneumoniae D39V [2], first compound 0.0155 µg/mL, partner 1.3 µg/mL	0.922
S. pneumoniae D39V [2], first compound 0.0155 µg/mL, partner 2.6 µg/mL	0.903
S. pneumoniae D39V [2], first compound 0.031 µg/mL, partner 0.65 µg/mL	0.902
S. pneumoniae D39V [2], first compound 0.031 µg/mL, partner 1.3 µg/mL	0.831
S. pneumoniae D39V [2], first compound 0.031 µg/mL, partner 2.6 µg/mL	0.796
S. pneumoniae D39V [2], first compound 0.062 µg/mL, partner 0.65 µg/mL	0.885
S. pneumoniae D39V [2], first compound 0.062 µg/mL, partner 1.3 µg/mL	0.773
S. pneumoniae D39V [2], first compound 0.062 µg/mL, partner 2.6 µg/mL	0.732

fitness, one replicate
Conditions	partner 0.125 µg/mL	partner 0.25 µg/mL	partner 0.5 µg/mL	partner 0.65 µg/mL	partner 1.3 µg/mL	partner 2.6 µg/mL
B. subtilis 168 [1], first compound 0.02 µg/mL	0.99	0.873	0.962	–	–	–
B. subtilis 168 [1], first compound 0.04 µg/mL	0.994	0.849	0.895	–	–	–
B. subtilis 168 [1], first compound 0.08 µg/mL	0.761	0.611	0.697	–	–	–
S. pneumoniae D39V [2], first compound 0.003875 µg/mL	–	–	–	≥ 1	≥ 1	≥ 1
S. pneumoniae D39V [2], first compound 0.00775 µg/mL	–	–	–	1	0.963	0.954

Conditions	Bliss interaction score
B. subtilis 168 [3]	0.0765
S. aureus DSM 20231	-0.104
S. aureus Newman	-0.0649
S. pneumoniae D39V [4]	0.0303

C[C@H]1c2cccc(O)c2C(=O)C2=C(O)[C@]3(O)C(=O)C(C(N)=O)=C(O)[C@@H](N(C)C)[C@@H]3[C@@H](O)[C@@H]21 [Doxycycline] + CN(N=O)C(=O)N[C@@H](C=O)[C@@H](O)[C@H](O)[C@H](O)CO [Streptozotocin]
Conditions	fitness
B. subtilis 168 [1], first compound 0.02 µg/mL, partner 0.15 µg/mL	0.917
B. subtilis 168 [1], first compound 0.02 µg/mL, partner 0.3 µg/mL	0.97
B. subtilis 168 [1], first compound 0.02 µg/mL, partner 0.6 µg/mL	0.901
B. subtilis 168 [1], first compound 0.04 µg/mL, partner 0.15 µg/mL	0.773
B. subtilis 168 [1], first compound 0.04 µg/mL, partner 0.3 µg/mL	0.789
B. subtilis 168 [1], first compound 0.04 µg/mL, partner 0.6 µg/mL	0.786
B. subtilis 168 [1], first compound 0.08 µg/mL, partner 0.3 µg/mL	0.538
B. subtilis 168 [1], first compound 0.08 µg/mL, partner 0.6 µg/mL	0.531
S. pneumoniae D39V [2], first compound 0.0155 µg/mL, partner 1.2 µg/mL	0.919
S. pneumoniae D39V [2], first compound 0.0155 µg/mL, partner 2.4 µg/mL	0.896
S. pneumoniae D39V [2], first compound 0.0155 µg/mL, partner 4.8 µg/mL	0.914
S. pneumoniae D39V [2], first compound 0.031 µg/mL, partner 1.2 µg/mL	0.837
S. pneumoniae D39V [2], first compound 0.031 µg/mL, partner 2.4 µg/mL	0.847
S. pneumoniae D39V [2], first compound 0.031 µg/mL, partner 4.8 µg/mL	0.822
S. pneumoniae D39V [2], first compound 0.062 µg/mL, partner 1.2 µg/mL	0.754
S. pneumoniae D39V [2], first compound 0.062 µg/mL, partner 2.4 µg/mL	0.761
S. pneumoniae D39V [2], first compound 0.062 µg/mL, partner 4.8 µg/mL	0.71

fitness, S. pneumoniae D39V [2], one replicate
Conditions	partner 1.2 µg/mL	partner 2.4 µg/mL	partner 4.8 µg/mL
first compound 0.003875 µg/mL	0.989	0.971	0.984
first compound 0.00775 µg/mL	0.926	0.913	0.933

Conditions	Bliss interaction score
B. subtilis 168 [3]	0.0094
S. aureus DSM 20231	0.0373
S. aureus Newman	0.0413
S. pneumoniae D39V [4]	-0.0474

C[C@H]1c2cccc(O)c2C(=O)C2=C(O)[C@]3(O)C(=O)C(C(N)=O)=C(O)[C@@H](N(C)C)[C@@H]3[C@@H](O)[C@@H]21 [Doxycycline] + CN[C@@H]1[C@H](O)[C@H](NC)[C@H]2O[C@@]3(O)C(=O)C[C@@H](C)O[C@H]3O[C@@H]2[C@H]1O [Spectinomycin]
fitness
Conditions	partner 2 µg/mL	partner 4 µg/mL	partner 8 µg/mL	partner 16 µg/mL
B. subtilis 168 [1], first compound 0.02 µg/mL	0.909	0.881	0.835	–
B. subtilis 168 [1], first compound 0.04 µg/mL	0.824	0.828	0.712	–
B. subtilis 168 [1], first compound 0.08 µg/mL	0.546	–	0.402	–
S. pneumoniae D39V [2], first compound 0.0155 µg/mL	–	0.91	0.869	0.805
S. pneumoniae D39V [2], first compound 0.031 µg/mL	–	0.879	0.822	–
S. pneumoniae D39V [2], first compound 0.062 µg/mL	–	0.783	0.758	–

fitness, S. pneumoniae D39V [2], one replicate
Conditions	first compound 0.003875 µg/mL	first compound 0.00775 µg/mL	first compound 0.031 µg/mL	first compound 0.062 µg/mL
partner 4 µg/mL	0.971	0.908	–	–
partner 8 µg/mL	0.949	0.925	–	–
partner 16 µg/mL	0.804	0.834	0.768	0.673

Conditions	Bliss interaction score
B. subtilis 168 [3]	-0.0339
S. aureus DSM 20231	-0.0389
S. aureus Newman	-0.0405
S. pneumoniae D39V [4]	-0.0375

C[C@H]1c2cccc(O)c2C(=O)C2=C(O)[C@]3(O)C(=O)C(C(N)=O)=C(O)[C@@H](N(C)C)[C@@H]3[C@@H](O)[C@@H]21 [Doxycycline] + CN[C@@H]1[C@H](O[C@H]2[C@H](O[C@H]3[C@H](O)[C@@H](O)[C@H](N=C(N)N)[C@@H](O)[C@@H]3N=C(N)N)O[C@@H](C)[C@]2(O)C=O)O[C@@H](CO)[C@H](O)[C@H]1O [Streptomycin]
fitness
Conditions	partner 2 µg/mL	partner 4 µg/mL	partner 8 µg/mL
B. subtilis 168 [1], first compound 0.02 µg/mL	0.902	0.772	–
B. subtilis 168 [1], first compound 0.04 µg/mL	0.766	0.678	–
B. subtilis 168 [1], first compound 0.08 µg/mL	0.497	–	–
S. pneumoniae D39V [2], first compound 0.0155 µg/mL	0.9	0.895	0.891
S. pneumoniae D39V [2], first compound 0.031 µg/mL	0.866	0.859	0.837
S. pneumoniae D39V [2], first compound 0.062 µg/mL	0.72	0.714	0.735

S. pneumoniae D39V [2], one replicate
Conditions	fitness
first compound 0.003875 µg/mL, partner 2 µg/mL	0.955
first compound 0.003875 µg/mL, partner 4 µg/mL	≥ 1
first compound 0.003875 µg/mL, partner 8 µg/mL	0.977
first compound 0.00775 µg/mL, partner 2 µg/mL	0.928
first compound 0.00775 µg/mL, partner 4 µg/mL	0.952
first compound 0.00775 µg/mL, partner 8 µg/mL	0.937
first compound 0.0155 µg/mL, partner 16 µg/mL	0.741
first compound 0.031 µg/mL, partner 16 µg/mL	0.671
first compound 0.062 µg/mL, partner 16 µg/mL	0.57

Conditions	Bliss interaction score
B. subtilis 168 [3]	0.251
S. aureus DSM 20231	0.0508
S. aureus Newman	-0.016
S. pneumoniae D39V [4]	-0.0673
